Measurements as given in the NIST ThermoML archive (doi:10.1021/je060479w).
Numbers after ± are expanded uncertainties.

Settings: for electrical conductivity / mass density / viscosity: 298.2 K, 101.33 kPa, Liquid; for electrical conductivity: Alternating current cell with electrodes; for mass density: Pycnometric method; for viscosity: rotary viscometer; for Normal melting temperature: Crystal; for Normal melting temperature / Glass transition temperature: DTA

Structure (SMILES) | electrical conductivity [S/m] | mass density [kg/m3] | viscosity [mPa·s] | Normal melting temperature [°C] | Glass transition temperature [°C]
CC(=O)[O-].[NH3+]CCO [2-hydroxyethylammonium acetate] | 0.0692 ± 0.0001 | 1120 ± 26 | 640 | -70.9 ± 0.5 | -75.8 ± 5
NCCO.O=CO [2-hydroxyethylammonium formate] | 0.3291 ± 0.0001 | 1204 ± 26 | 118 | -82.2 ± 0.5 | -85.9 ± 5
CC(O)C(=O)[O-].[NH3+]CCO (stereo unspecified) [2-hydroxyethylammonium lactate] | 0.03775 ± 1e-05 | 1202 ± 26 | 1200 | -58.5 ± 0.5 | -63.7 ± 5
O=CO.OCCN(CCO)CCO [triethanolamine formate] |  |  |  | 67.6 ± 0.5 | 
CC(O)C(=O)O.OCCN(CCO)CCO [triethanolamine lactate] | 0.009 ± 0.001 | 1222 ± 26 | 455 | -54.8 ± 0.5 | -59.4 ± 5
CC(=O)O.OCCN(CCO)CCO [triethanolammonium acetate] | 0.04958 ± 1e-05 | 1120 ± 26 | 342 | -72.2 ± 0.5 | -78.8 ± 5
